Laboratory results taken from US20050124685A1, “Polyether brevetoxin derivatives as a treatment for neurotoxic shellfish poisoning and ciguatera fish poisoning” (priority 2003, published 2005).
Read-outs that look alike come from different tables or passages of the source.

How the values were obtained:
[1] = test system: isolated rat brain sodium channels (site 5); settings: read-out: Ki, competitive displacement assay, synaptosomal binding
[2] = test system: isolated rat brain sodium channels (site 5); settings: Purkerson-Parker, et al., 2000; cited from earlier work
sodium channels [3] = settings: steady state; Purkerson-Parker, et al., 2000; cited from earlier work
sodium channels [4] = experiment: Patch clamp single sodium channel currents in membrane patches; type: cell-based; settings: 100 nM, n=6, FIG. 2C, 2D
Protocol: FIG. 2A-D illustrates single sodium channel currents in patch clamp sodium channels during successive command depolarizations to −10 mV from a command potential of −100 mV in the same membrane patch before (2A) and after (2B) exposure to β-naphthoyl-PbTx-3 (100 nM, n=6). […] The average area under the β-naphthoyl-PbTx-3 curve was 71.8±18.3% less than that of PbTx-3.
FIG. 3A-E illustrates the steady state currents in four different membrane patches at a steady state command voltage of −50 mV. 3A are control traces preceeding the test with PbTx-3, and are representative of control recordings observed in all four patches during 7.2 s of continuous observation. 3B are traces for membrane patches exposed to PbTx-3 (100 nM, […]). 3C are traces for membrane patches exposed to benzoyl-PbTx-3 (100 nM, n=6). 3D are traces for membrane patches exposed to α-naphthoyl-PbTx-3 (100 nM, n=6). 3E are traces for membrane patches exposed to β-naphthoyl-PbTx-3 (100 nM, n=6). The experimental recordings are representative of 7.2 s of continuous observation in PbTx-3 or the particular derivative.

[5] = isolated rat brain sodium channels, FIG. 1

## α-Naphthoyl-PbTx-3
[1]; [5]
  Ki: 4.68 nM

## C=C(CO)CC1CC(O)C2(C)OC3CC4OC5CC6(C)OC7(C)CCC8OC9CC%10(C)OC%11C(C)=CC(=O)OC%11CC%10OC9CC(C)C8OC7CC6OC5(C)CC=CC4OC3CC2O1 (centres unmarked) [PbTx-3, reference compound]
[1]
  Ki: 3 nM

## β-Naphthoyl-PbTx-3
[1]; [5]
  Ki: 1.06 nM
[2]
  displacement of native toxin from binding site: displaces the native toxin from its binding site
Sodium channels [3]
  opening of sodium channels: does not elicit opening of sodium channels in steady state
Sodium channels [4]; depolarizations to −10 mV from command potential of −100 mV
  average area under the ensemble average curve, less than that of PbTx-3: 71.8±18.3%
Sodium channels [4]; depolarizations to −10 mV from −100 mV
  peak sodium current (ensemble averages): reduction in peak sodium current

## Benzoyl-PbTx-3
[1]; [5]
  Ki: 0.2 nM
